The text below walks through data of patent US20150224061A1, “NANOCONSTRUCTS WITH PHARMACOLOGICAL ACTIVITY” (UNIVERSITA' DEGLI STUDI DI MILANO - BICOCCA, priority 2012, published 2015).

For data set [1], the system named is transduction signal pathway of NFAT. Description: IL-2 production (ELISA) by LPS-stimulated DCs derived from bone marrow, marker of NFAT pathway. Format: cell-based, mouse. Conditions: 18 hours; for inhibition of NFAT activity (IL-2 release, ELISA): peptide 25 uM pretreatment, LPS 100 ng/ml. On the procedure:
(§1) FIG. 2. Inhibition of the transduction of the NFAT signals by means of the MYTS-VIVIT nanoconstructs in DCs derived from bone marrow. The DCs were pre-treated, or not, with the indicated quantities of MYTS-VIVIT for two hours and then activated with LPS for 18 hours. The quantities of IL-2 and TNFα in the supernatant were measured using the ELISA method.
(§2) In order to assess whether nanoconstructs are able to inhibit the transduction signal pathway of NFAT, the following experiments were carried out in vitro. After exposure to LPS, the DCs derived from bone marrow were able to produce various inflammatory cytokines, including IL-2 and TNFα. IL-2 was strictly NFAT-dependent, whereas the production of TNFα was NF-kB-dependent and NFAT-independent. IL-2 and TNFα are therefore valid markers respectively of the activation pathway of NFAT and NF-kB. After two hours of pretreatment with the nanoconstructs obtained as described in example 1, the DCs derived from bone marrow were stimulated with LPS and the quantity of released cytokines was measured using the ELISA method 18 hours later.
(§3) DCs produce IL-2 in an NFAT-dependent manner if stimulated with LPS. To assess the efficacy of the VIVIT peptide, DCs derived from bone marrow were transduced with a sequence coding the VIVIT peptide fused with the GFP protein through use of a retroviral vector.
Since DCs are phagocyte cells, we firstly used the non-modified peptide, assuming that this could reach the cell cytosol once entered into the endosomal compartment. We then carried out co-cultures of DCs with the VIVIT peptide, and the inhibition of NFAT was analyzed by measuring the production of IL-2 following stimulation with LPS. […] A modified VIVIT peptide was then assessed, to which a […] 11-arginine tail had been attached. It has, in fact, been described in the literature that this modification can allow entry into the cells.
Background: An ELISA detects its analyte on a solid surface through an enzyme-linked reagent.

Data set [2] relates to NF-kB. Description: TNFα production (ELISA) by LPS-stimulated DCs derived from bone marrow, marker of NF-kB pathway. It is filed as cell-based, mouse. Conditions: 2 h pretreatment, then LPS, 18 hours. On the procedure:
as §1, §2, §3

In data set [3] the test system is transduction signal pathway of NFAT. Description: GFP+ Ly6G+ spleen neutrophils in IL-2/GFP mutant mice after LPS. It is filed as in vivo, mouse. Conditions: i.v. two hours before LPS injection. The protocol:
FIG. 3. The NFAT pathway is active in the neutrophils. Mice genetically modified by IL-2/GFP were treated, or not, with MYTS-VIVIT and were then injected intravenously two hours after with LPS. The bars represent the percentage of GFP+Ly6G^+ spleen neutrophils […] after the treatment with LPS. In this mouse model, GFP was inserted in the second exon of IL-2 and therefore has the same regulation of IL-2.
Mutant mice (obtained from laboratories of Ronald H. Schwartz, NIH Bethesda) were used for this experiment. In this mouse model, the GFP protein was inserted into the second exon of the gene IL-2, and therefore had the same regulation of IL-2. As mentioned before, IL-2 is a marker of NFAT activation. If the mice genetically modified with regard to IL-2/GFP are treated with LPS, a significant percentage of GFP+ neutrophils (Ly6G+ cells) can be measured in the spleen two hours after treatment. To verify whether the nanoconstructs of the present invention are able to inhibit the signal pathway of NFAT in vivo, mutant mice were injected endovenously with the nanoconstructs as prepared in example 1 two hours before the injection of LPS.

Data set [4] deals with NFAT-dependent edema induced by LPS. Briefly: LPS-induced paw edema model. Format: in vivo, mouse. Conditions: subcutaneous pretreatment 2 hours prior to LPS in the paw. The protocol:
FIG. 4. Inhibition of the NFAT pathway in the formation of edema of the paw in response to LPS. The animals were pretreated, or not, with the nanoconstructs (MYTS-VIVIT) or FK-506 (approximately 2 h) and were then treated locally with LPS.
To assess whether the nanoparticles of the present invention are able to inhibit in vivo the formation of LPS-induced edema, the mice were pretreated, or not, with the nanoconstructs of example 1 or FK506 as control sub-cutaneously for 2 hours prior to the injection of LPS in the paw.

The test system of data set [5] is inflammatory arthritis. Description: Arthritis induced by anti-collagen antibodies/LPS. It is filed as in vivo, C57BL6 mice. Conditions: treated on days −1, 0, +1, +3, +6, +9, +12. The protocol: FIG. 5. Inhibition of the development of arthritis. FIG. 5A: the mice were treated endovenously, or were not treated, at −1, 0, +1, +3, +6, +9, and +12 days with the nanoconstructs (MYTS-VIVIT) or with nanoconjugates MYTS-VEET (a peptide similar to VIVIT in which the sequence has been modified, thus losing specificity for Cn). Day 0 represents the start of the procedure of inducing arthritis. The clinical points indicative of the severity of the arthritis were assessed on the days indicated. In FIG. 5B, photographs showing arthritis on the seventh day in a treated mouse and in an untreated mouse are shown.
Rheumatoid arthritis (AR) is a chronic, debilitating systemic autoimmune disease characterized by an immunological inflammatory reaction of the mesenchymal tissue and of the synovial fluid accompanied by polyarticular synovitis. Over time, it leads to the progressive destruction of the articular and periarticular structures. […] To verify whether the nanoconstructs of the present invention are able to inhibit the development of inflammatory arthritis, a model of arthritis induced by anti-collagen antibody of the IL/LPS type was used. In particular, six C57BL6 mice were treated on days −1, 0, +1, +3, +6, +9, +12 with the nanoconstructs of example 1.

The test system of data set [6] is skin transplant rejection. Description: Skin transplant rejection model (male skin into female mice). It is filed as in vivo, mouse. On the procedure:
FIG. 6. Inhibition of skin transplant rejection. Male skin was grafted in female mice. The mice were then injected endovenously, or not, with the nanoconstructs (MYTS-VIVIT or MYTS-VEET) on days −1, 0, +1, +3, +6, +9, +12, and +15. In addition, the mice were then left without treatment for a further 20 days. The boxes M in M represent the untreated controls and show the skin transplant from male mouse to male mouse. […] The boxes M in F represent the skin transplant from male mouse to female mouse without treatment with the nanoconstructs. The scar of the rejection is clearly visible on day 30. The rejection can also be seen in boxes M in F (male into female) treated with the control MYTS-VEET nanoconstructs. Vice versa, in the boxes representing the transplant from male to female with MYTS-VIVIT treatment (M in F+MYTS-VIVIT), the acceptance of the graft is clearly visible. The bar chart beneath represents a quantification of the results of the experiment. To summarize, the transplant was accepted in 80% of cases treated with the MYTS-VIVIT nanoconstructs, whereas it was rejected in 100% of untreated cases and in 80% of cases treated with the control MYTS-VEET nanoconstruct.
To verify whether the nanoconstructs of the present invention are able to inhibit transplant rejection, a skin transplant model was used. […]

The test system of data set [7] is NFAT. Conditions: cited from earlier work.
Data set [8] deals with NF-kB transcription factor. Conditions: cited from earlier work.
Data set [9] has as its system calcineurin (Cn). The note with it: cited from earlier work.
In data set [10] the test system is neurons. The note with it: i.v., 1 hour, magnet applied to the skull. The protocol: Then, a staining of the neurons was carried out with the fluorescent probe NeuroTrace (which stains the substance Nissi, which is abundant in neuronal cells and is formed from ribosomal RNA associated with the endoplasmic reticulum).

Like-named read-outs stand apart in the source and are kept apart here. Where no end group is shown, it is not given here.

As for “MYTS-VIVIT (H-CGGGKMAGPVIVITGPHEE-OH; not fully specified; printed as NH2—CGGGKMAGPVIVITGPHEE-COOH)”, in [1] (2 h pretreatment, then LPS), the “IL-2 released (ELISA)” value was “completely block IL-2”. Besides, the “TNFα released (ELISA)” value in [2] is “not the production of TNFα”. Further, the “percentage of GFP+ Ly6G+ spleen neutrophils” value in [3] is given as “strong impact on the ability of the neutrophils to produce GFP”. Also, in data set [4], the “formation of LPS-induced paw edema” value is on record as “significantly inhibited”. Further, in [5], the “development of arthritis (clinical points)” value is “inhibit the development of arthritis very effectively”. The skin transplants accepted in data set [6] (i.v. treatment from day −1, after four weeks / day 30) is listed as 80%; in data set [6] (i.v. treatment from day −1, after four weeks / day 30, listed as nanoconstructs bearing the VIVIT peptide), 90%.
Regarding “NH2—CGGGKMAGPVIVITGPHEE-COOH (H-CGGGKMAGPVIVITGPHEE-OH; listed as Homo sapiens)”, the “inhibition of NFAT activity (IL-2 release, ELISA)” value in data set [1] was “unable to penetrate into the cytosol of the DCs and to block the activity of NFATs”; in data set [1] (listed as free, non-modified VIVIT peptide), “did not make it possible to interfere with the activity of NFAT”.
For Val-Ile-Val-Ile-Thr [VIVIT], in [7], the “inhibition of NFAT (gene reporter)” value was “effectively inhibits NFAT and its activity”. The “inhibition of NF-kB (gene reporter)” value in data set [8] was “not the activity of the NF-kB transcription factor”. For the same substance, in [9], the “affinity for Cn” value is “increased affinity for Cn”.
Consider enfuvirtide, for which the “accumulation of AF660-labeled drug in neurons (confocal microscopy)” value in data set [10] (listed as free enfuvirtide) is on record as “only in the case of the drug conjugated to the MYTS nanoparticles”; in [10] (listed as labeled drug not conjugated to the nanoparticles), “traces of fluorescence cannot be seen”.
For “peptide with an 11-arginine tail: peptide with sequence SEQ ID NO:1 conjugated with an 11-arginine tail (CGGGKMAGPVIVITGPHEE; also: 11-arginine tail conjugated, end not given here; listed as Homo sapiens)”, the “inhibition of NFAT activity (IL-2 release, ELISA)” value was “unable to penetrate into the cytosol of the DCs and to block the activity of NFATs” in data set [1]; “not possible to observe any inhibition of the NFAT pathway” in data set [1] (listed as modified VIVIT peptide).
